Data from patent US20160303205A1, “Combination Therapies for Lysosomal Storage Diseases” (Washington University, priority 2015, published 2016).
Where two headings read alike, the source gives them in different places.

Tests used:
[1] = system: Twitcher mice; assay: Lifespan of Twitcher mice (Kaplan-Meier survival); type: in vivo, mouse
Excerpt: Treated and untreated Twitcher mice as well as untreated controls were used in all experiments. […] The experimental and control animals were randomly assigned to groups for analysis at pre-determined time points (n=3-6 animals per time point) or for life span and behavioral analyses (n=10-14 animals per group). The number of animals per group was based on previous experience with this model and the specific assays as well as power calculations. Quantitative biochemical analyses (GALC activity, psychosine measurements, cytokine/chemokine levels) were performed in duplicate on tissues from 3-6 animals, depending on the assay. Semi-quantitative histomorphometry was performed on at least 3 representative sections per animal from at least 3 animals per group. The photography settings were kept constant for all images. Analysis of variance (ANOVA) was used for group comparisons with Bonferroni correction for pair-wise comparisons. Student's t-test was used to compare the means of two groups. Significant differences in life span were determined by log-rank test. […]
Animals were housed at Washington University School of Medicine. […] Genotypes were determined on postnatal day 1 by PCR as previously described (Sakai et al. 1996 J Neurochem 66:1118-1124; Lin et al., 2005 Molecular Therapy 12:422-430.). […]
Lifespan was recorded as the age of the animal on the date of death or sacrifice. […]

[2] = system: Twitcher mice; settings: Twitcher mouse; literature (LeVine 2000; Biswas and LeVine 2002); cited from earlier work

Compound: N[C@H]1CONC1=O [L-cycloserine]
- median lifespan [1]: ~57 days
- median lifespan ([1]; untreated Twitcher 39.5 d): 57 days
- lifespan [2]: ~57 days
